Experiments:
[1] = Drug excretion in feces of healthy obese adult male human treated with [14C]CP-945,598 at 25 mg, po administered as single dose after 0 to 384 hrs hrs by HPLC method; format: ADME, organism-based; conditions: in vivo
[2] = test system: Homo sapiens; test: Total drug excretion in healthy obese adult male human treated with [14C]CP-945,598 at 25 mg, po administered as single dose after 0 to 384 hrs hrs by HPLC method; format: ADME, organism-based; conditions: in vivo
[3] = Drug excretion in urine of healthy obese adult male human treated with [14C]CP-945,598 at 25 mg, po administered as single dose after 0 to 384 hrs hrs by HPLC method; format: ADME, organism-based; conditions: in vivo
[4] = target: Cytochrome P450 3A4 (Homo sapiens, UniProt P08684); test: Drug metabolism assessed as human recombinant CYP3A4-mediated metabolite formation after 60 mins by HPLC method; format: ADME; conditions: recombinant enzyme, 1 h
[5] = test system: Serum; test: Drug level in serum of healthy obese adult male human treated with [14C]CP-945,598 at 25 mg, po administered as single dose after 12 hrs by HPLC method; format: ADME, organism-based; conditions: in vivo
[6] = test system: Serum; test: Total drug level in serum of healthy obese adult male human treated with [14C]CP-945,598 at 25 mg, po administered as single dose after 48 hrs by HPLC method; format: ADME, organism-based; conditions: in vivo
[7] = test system: Serum; test: AUC in serum of healthy obese adult male human treated with [14C]CP-945,598 at 25 mg, po administered as single dose after 48 hrs by HPLC method; format: ADME, organism-based; set-up: time < 48 hr, dose 25 mg, route oral; conditions: in vivo
[8] = test system: Serum; test: Drug level in serum of healthy obese adult male human treated with [14C]CP-945,598 at 25 mg, po administered as single dose after 48 hrs by HPLC method; format: ADME, organism-based; conditions: in vivo
[9] = test system: Serum; test: Drug level in serum of healthy obese adult male human treated with [14C]CP-945,598 at 25 mg, po administered as single dose after 24 hrs by HPLC method; format: ADME, organism-based; conditions: in vivo
[10] = test system: Serum; test: Drug level in serum of healthy obese adult male human treated with [14C]CP-945,598 at 25 mg, po administered as single dose after 4 hrs by HPLC method; format: ADME, organism-based; conditions: in vivo
[11] = test system: Homo sapiens; test: AUC (0 to infinity) in healthy obese adult male human at 25 mg, po administered as single dose; format: ADME, organism-based, Plasma; set-up: dose 25 mg, route oral, time infinity; conditions: in vivo
[12] = Bioavailability in rat; format: ADME, organism-based; conditions: in vivo
[13] = test system: Homo sapiens; test: AUC (0 to last) in healthy obese adult male human at 25 mg, po administered as single dose; format: ADME, organism-based, Plasma; set-up: dose 25 mg, time 0 - last, route oral; conditions: in vivo
[14] = Cmax in healthy obese adult male human at 25 mg, po administered as single dose; format: ADME, organism-based; set-up: dose 25 mg, route oral; conditions: in vivo
[15] = Terminal phase half life in human; format: ADME, organism-based; conditions: in vivo, read-out: beta t1/2 (converted)
[16] = Tmax in human; format: ADME, organism-based; conditions: in vivo
[17] = Tmax in healthy obese adult male human at 25 mg, po administered as single dose; format: ADME, organism-based; conditions: in vivo
[18] = Terminal elimination half life in healthy obese adult male human at 25 mg, po administered as single dose; format: ADME, organism-based; conditions: in vivo, read-out: beta t1/2 (converted)
[19] = Bioavailability in dog; format: ADME, organism-based, Canis lupus familiaris; conditions: in vivo

Sequence of Cytochrome P450 3A4 (P08684 whole entry): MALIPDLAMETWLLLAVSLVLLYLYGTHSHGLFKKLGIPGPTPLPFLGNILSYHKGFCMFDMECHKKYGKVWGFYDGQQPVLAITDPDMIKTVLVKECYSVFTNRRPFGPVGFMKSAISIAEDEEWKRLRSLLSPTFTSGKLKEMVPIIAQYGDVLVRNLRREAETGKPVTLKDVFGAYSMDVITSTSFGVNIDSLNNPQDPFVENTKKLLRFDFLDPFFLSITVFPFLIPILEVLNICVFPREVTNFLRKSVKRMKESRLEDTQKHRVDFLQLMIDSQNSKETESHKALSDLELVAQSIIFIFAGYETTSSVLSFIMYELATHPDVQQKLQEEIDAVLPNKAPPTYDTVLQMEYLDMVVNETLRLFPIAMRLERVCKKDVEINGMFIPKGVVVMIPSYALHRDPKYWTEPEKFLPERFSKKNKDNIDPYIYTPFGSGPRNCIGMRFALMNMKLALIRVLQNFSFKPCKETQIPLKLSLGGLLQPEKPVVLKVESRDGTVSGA

Q: What does the source list for NC1(C(=O)O)CCN(c2ncnc3c2nc(-c2ccccc2Cl)n3-c2ccc(Cl)cc2)CC1?
A: Drug excretion [1]: 30.9%; Drug excretion [2]: 36.3%; Drug excretion [3]: 5.4%

Q: Which Drug excretion [2] does the source give for NC(=O)C1(NO[C@@H]2O[C@H](CO)[C@@H](O)[C@H](O)[C@H]2O)CCN(c2ncnc3c2nc(-c2ccccc2Cl)n3-c2ccc(Cl)cc2)CC1 here?
A: 4.8%

Q: And the Drug excretion [3]?
A: 4.8%

Q: What does the source list for NC(=O)C1(NO)CCN(c2ncnc3c2nc(-c2ccccc2Cl)n3-c2ccc(Cl)cc2)CC1?
A: Drug excretion [1]: 1.2%; Drug metabolism [4]: 8.8%; Drug excretion [2]: 1.8%; Drug excretion [3]: 0.6%

Q: With ON=C1CCN(c2ncnc3c2nc(-c2ccccc2Cl)n3-c2ccc(Cl)cc2)CC1 as the compound, how does the Drug uptake [5] read?
A: 10.9 ngequiv/g

Q: And the Drug uptake [6]?
A: 17.9 ngequiv/g

Q: And the AUC [7]?
A: 438 ngequiv.hr/g

Q: And the Drug metabolism [4]?
A: 13%

Q: And the Drug uptake [8]?
A: 6 ngequiv/g

Q: And the Drug uptake [9]?
A: 10.9 ngequiv/g

Q: What about the Drug uptake [10] of the same compound?
A: 10.1 ngequiv/g

Q: What does the source list for CCNC1(C(N)=O)CCN(c2ncnc3c2nc(-c2ccccc2Cl)n3-c2ccc(Cl)cc2)CC1.Cl [OTENABANT HYDROCHLORIDE]?
A: AUC [11]: 864 ng·h/mL; bioavailability [12]: 32%; AUClast [13]: 778 ng·h/mL; Cmax [14]: 14 ng/mL; half-life [15]: 107 h; Tmax [16]: 4 h; Tmax [17]: 6 h; half-life [18]: 159 h; bioavailability [19]: 32%

From ChEMBL document CHEMBL3526047, “Excretion, metabolism, and pharmacokinetics of 1-(8-(2-chlorophenyl)-9-(4-chlorophenyl)-9H-purin-6-yl)-4-(ethylamino)piperidine-4-carboxamide, a selective cannabinoid receptor antagonist, in healthy male volunteers” (Drug Metab Dispos, 2012)
